Reference: paper PMC10499324, “The differing effects of a dual acting regulator on SIRT1” (Frontiers in Molecular Biosciences, 2023)
Where “and” joins values, the source holds several entries; their conditions need not be identical. Equal values may be shown once. Where no end group is shown, it is not given here.

How the values were obtained:
[1] = target: T1, hSIRT1-143 (Homo sapiens, UniProt Q96EB6); experiment: Enzyme-coupled continuous SIRT1 deacetylase kinetics assay (Michaelis-Menten); assay type: biochemical; details: for K M / k cat / k cat/K M: peptide as substrate, without resveratrol
T1 construct: Schematic of SIRT1-143 design, consisting of residues 143–512 and the region 641–665; SUMO (smt3) (N, cleaved yes); His tag (N, cleaved yes); made in house; host or cells: E. coli BL21 (DE3)
T1 sequence (Q96EB6 143-512 limits assumed): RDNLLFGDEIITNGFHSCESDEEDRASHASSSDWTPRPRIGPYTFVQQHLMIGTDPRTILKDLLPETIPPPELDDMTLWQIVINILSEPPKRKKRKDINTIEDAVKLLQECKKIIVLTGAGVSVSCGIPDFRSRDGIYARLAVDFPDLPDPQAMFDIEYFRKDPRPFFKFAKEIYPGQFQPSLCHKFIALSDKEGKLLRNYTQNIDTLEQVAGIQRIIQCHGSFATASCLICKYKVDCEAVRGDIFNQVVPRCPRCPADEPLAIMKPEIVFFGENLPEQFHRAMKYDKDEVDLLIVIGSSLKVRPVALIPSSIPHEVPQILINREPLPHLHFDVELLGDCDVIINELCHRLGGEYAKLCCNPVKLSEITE
T1 sequence (Q96EB6 641-665 limits assumed): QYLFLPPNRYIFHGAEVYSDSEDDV
Procedure: Assays were conducted in accordance with a prior publication ([Smith et al., 2009]). Peptide substrates were 11 or 13-mer peptides with acetylated lysine at the middle residue position, synthesized and purified by Elim BioPharm (Hayward, CA) to a purity of 90%. The following reagents were used in the assay mixtures: 5–640 μM peptide substrate, 640 μM NAD^+, 2 mM MPB-PncA (nicotinamidase), 20 mM phosphate buffer pH 7.6, 3 mM α-ketoglutarate, 1 mM DTT, 0.2 mM NADPH, and 6.7 units of glutamate dehydrogenase. Then, 0.2–1 μM of the SIRT1 enzyme was added to start the reactions. SIRT1 reactions were conducted in a transparent, flat-bottomed, 96-well plate with a final volume of 150 μL per well and read with a BioTek™ Synergy HTX Multimode Reader. […] After SIRT1 was added, absorbance at 340 nm was measured to quantify the rate of NADPH depletion for a duration of 10 min. Initial rates of the reaction were calculated using 6.22 mM^-1cm^-1 as the extinction coefficient for NADPH and fitting the slope of the linear component of the reaction. The initial velocity of the reaction absent the peptide substrate, which served as a background control, was subtracted from the initial velocities of all other reactions. By fitting the initial rate data to the Michaelis-Menten equation in GraphPad Prism, the values for k cat and K M were obtained.

[2] = target: T1, hSIRT1-143; experiment: Small angle X-ray scattering (SAXS) of SIRT1 complexes; details: for Rg / Rxs: + 200 μM resveratrol; for Δ Rg / Δ Rxs: + vs - 200 μM resveratrol; on Rg: values in Å; on Rxs: values in Å
Procedure: SAXS samples were prepared with 40 μM of hSIRT1-143 in storage buffer (50 mM Tris pH 8.0, 150 mM NaCl, 1 mM DTT). All samples contained 640 μM of NAD^+ analog ADPr (adenosine diphosphate ribose) except for the apo SIRT1 sample. Varying concentrations of different peptide substrates (500–5,000 μM) were added to the different samples. The concentration of peptide substrate added was determined based on previous kinetics assays to ensure that SIRT1 is mostly saturated with the peptide.
With an X-ray wavelength of 1.216 Å and a sample-to-detector distance of 2070 mm, the scattering vector, q, varied from 0.01 to 0.45. Where 2θ is the scattering angle, the scattering vector is defined as q = 4π sin θ/λ. The experiments were conducted at a temperature of 20°C. The sample was placed for 10 s with the detector framing at 0.3 s to optimize the signal using the SAXS FrameSlice program (https://bl1231.als.lbl.gov/ran). ATSAS 3.0 Primus software was utilized to plot and analyze the combined SAXS ([Manalastas-Cantos et al., 2021]).

[3] = target: T1, hSIRT1-143; experiment: Differential scanning fluorimetry (SYPRO Orange) thermal stability of SIRT1 complexes; assay type: binding; details: 200 μM resveratrol
Procedure: Differential Scanning Fluorimetry experiments were performed in a 384-well plate using a qTOWER real-time PCR thermal cycler (Analytik Jena). Fluorescence intensity was measured in the TAMRA channel (Ex: 535 nm Em: 580 nm) over a period of 1 h with a 1°C increase temperature ramp per cycle in “Normal” mode. […] 1:100 SYPRO® Orange (Millipore) dye diluted in buffer was also added to each well. All measurements were performed in triplicate, with buffer-only controls containing ADPr, resveratrol, and peptide performed for all conditions. Tma was calculated using the first derivative method and fitting a Lorentzian distribution to the first derivative curve (Tma = center of curve/inflection point) in GraphPad Prism ([Wu et al., 2020]).

[4] = target: T1, hSIRT1-143; experiment: as above; assay type: binding; details: SIRT1•ADPr•Ac-H3; 200 μM resveratrol; single data set
[5] = towards Ac-p53W, 200 μM resveratrol

^376STSRHKK^AcWMFKTE^389 [Ac-p53W]
K M [1]: 13 ± 1.4 µM
k cat [1]: 0.06 ± 0.001 s⁻¹
k cat/K M [1]: 5000 ± 500 M⁻¹ s⁻¹

Oc1ccc(/C=C/c2cc(O)cc(O)c2)cc1 [resveratrol]
Rg ([2]; SIRT1•ADPr): 35.45 Å
Rxs ([2]; SIRT1•ADPr): 14.19 Å
Δ Rg ([2]; SIRT1•ADPr): 1.7%
Δ Rxs ([2]; SIRT1•ADPr): 39.9%
Rg ([2]; SIRT1•ADPr•Ac-CSNK): 33.87 Å
Rxs ([2]; SIRT1•ADPr•Ac-CSNK): 12.67 Å
Δ Rg ([2]; SIRT1•ADPr•Ac-CSNK): 4.9%
Rg ([2]; SIRT1•ADPr•Ac-H3): 35.94 Å
Rxs ([2]; SIRT1•ADPr•Ac-H3): 12.42 Å
Δ Rg ([2]; SIRT1•ADPr•Ac-H3): 3.1%
Rg ([2]; SIRT1•ADPr•Ac-H4): 36.99 Å
Rxs ([2]; SIRT1•ADPr•Ac-H4): 13.7 Å
Δ Rg ([2]; SIRT1•ADPr•Ac-H4): 7.3%
Rg ([2]; SIRT1•ADPr•Ac-p53): 34.92 Å
Rxs ([2]; SIRT1•ADPr•Ac-p53): 14.37 Å
Δ Rg ([2]; SIRT1•ADPr•Ac-p53): 9.2%
Rg ([2]; SIRT1•ADPr•Ac-p53W): 36.91 Å
Rxs ([2]; SIRT1•ADPr•Ac-p53W): 13.86 Å
Δ Rg ([2]; SIRT1•ADPr•Ac-p53W): 9% and 8.9%
Δ Rxs ([2]; SIRT1•ADPr•Ac-p53W): 7% and 6.9%
Rg ([2]; apo SIRT1): 32.26 Å
Rxs ([2]; apo SIRT1): 11.26 Å
Δ Rg ([2]; apo SIRT1): 6.3%
Δ Rxs ([2]; apo SIRT1): 9.7%
decrease of Tma ([3]; SIRT1 in complex with ADPr): 0.2 °C
decrease of melting temperature ([3]; SIRT1•ADPR•Ac-p53W complex): 1 °C
Tma + res ([3]; SIRT1•ADPr): 49.9 ± 0.44 °C
Tma + res ([3]; SIRT1•ADPr•Ac-CSNK): 46.0 ± 0.94 °C
Tma + res ([3]; SIRT1•ADPr•Ac-H4): 46.5 ± 1.49 °C
Tma + res ([3]; SIRT1•ADPr•Ac-p53): 48.2 ± 0.54 °C
Tma + res ([3]; SIRT1•ADPr•Ac-p53W): 49.5 ± 0.46 °C
Tma + res ([3]; apo SIRT1): 49.4 ± 0.48 °C
decrease of Tma ([3]; apo SIRT1): 1.7 °C
Tma + res [4]: 46.3 ± 0.55 °C
increases in K M ([1]; towards Ac-p53, Ac-H4, Ac-H3 and Ac-CSNK, 200 μM resveratrol): 2-6 fold
decrease in K M [1, 5]: 2 fold
increase of overall SIRT1 activity (k cat/K M) [1, 5]: 2 fold
effect on k cat values ([1]; towards any of the peptide substrates, 200 μM resveratrol): did not have significant effects

^9KSTGGK^AcAPRKQ^19 [Ac-H3]
K M [1]: 121 ± 12.6 µM
k cat [1]: 0.06 ± 0.009 s⁻¹
k cat/K M [1]: 500 ± 300 M⁻¹ s⁻¹

^3VRGKAGK^AcGLGKGG^15 [Ac-H4]
K M [1]: 108 ± 5.5 µM
k cat [1]: 0.09 ± 0.006 s⁻¹
k cat/K M [1]: 1000 ± 400 M⁻¹ s⁻¹

^2ASSSGSK^AcAEFIVG^14 (ASSSGSK(Ac)AEFIVG; UniProt P48729 2-14, looked up, fragment) [Ac-CSNK, 13-mer SIRT1 peptide substrate with acetylated lysine, casein kinase 1 alpha 1 (K8)]
K M [1]: 78 ± 2.2 µM
k cat [1]: 0.06 ± 0.002 s⁻¹
k cat/K M [1]: 700 ± 200 M⁻¹ s⁻¹

^376STSRHKK^AcLMFKTE^388 (STSRHKK(Ac)LMFKTE; UniProt P04637 376-388, looked up, fragment) [Ac-p53, 13-mer SIRT1 peptide substrate with acetylated lysine, p53(K382)]
K M [1]: 25 ± 0.2 µM
k cat [1]: 0.08 ± 0.009 s⁻¹
k cat/K M [1]: 3000 ± 30 M⁻¹ s⁻¹
